Source: publication PMC7059204, “Gonadotropin-Releasing Hormone Receptor-Targeted Near-Infrared Fluorescence Probe for Specific Recognition and Localization of Peritoneal Metastases of Ovarian Cancer” (Frontiers in Oncology, 2020)
One block for each compound: values may come before it.

Columns and labels:
A2780 cells [1] = test: Fluorescence microscopy cell binding of GnRHa-ICG / ICG; format: cell-based, human; settings: 60 min, 37°C, confocal microscopy
Description: (§1) The cells were placed in an 8-well chamber slide (Ibidi) and grown to ~60% confluence. A2780, CAOV-3, ES-2, and HeyA8 cells were incubated with 100 μmol/L GnRHa-FITC, and A2780, OSE, and H1299 cells were incubated with 20 μmol/L GnRHa-ICG or ICG (Sigma-Aldrich) for 60 min at 37°C. After incubation, the cells were washed with PBS, fixed in 4% paraformaldehyde, labeled with WGA Alexa Fluor 594 conjugate or WGA Alexa Fluor 488 conjugate (Invitrogen), and mounted with DAPI. These samples were analyzed using TCS SP5 confocal microscopy (Leica). For quantitative analysis, the mean fluorescence intensity was calculated using ImageJ software (version 1.50 g).

OSE cells = test: as above; format: cell-based, human; settings: 60 min, 37°C, confocal microscopy
Description: as §1

[2] = test system: A2780 peritoneal metastases of ovarian cancer; format: in vivo, Balb/c nude mice
From the text: The xenograft model for metastatic ovarian cancer was previously described ([18]). Female Balb/c nude mice (5–6 weeks old) were intraperitoneally injected with 1 × 10^7 A2780 cells. Tumors were allowed to grow for 2–3 weeks. The Institutional Animal Care and Use Committee of Fudan University approved all protocols presented in these studies.
For ex vivo GnRHa-ICG and ICG (0, 1, 10, and 20 μmol/L) imaging, fluorescence signals were taken using the IVIS Lumina K imaging system (PerkinElmer) and the clinically used Fluorescence Navigation system (the FloNavi, Optomedic Technique Inc., Guangdong, China). For intraperitoneal metastasis imaging, 0.72 μmol/kg of GnRHa-ICG or ICG was injected intraperitoneally in mice. Mice were sacrificed at the indicated times (n = 3 per group), and the abdominal cavities were exposed. Fluorescence images were obtained using the IVIS Lumina K imaging system (PerkinElmer) with a 780 nm excitation filter and an 845 nm emission filter. For ex vivo imaging, xenografts and organs were immediately dissected and analyzed after sacrifice.
Fluorescence signals were quantified as the average radiant efficiency ([p/s/cm^2/sr]/[μW/cm^2]) using the Living Image software. The fluorescence intensity was measured by drawing a region of interest (ROI) around the area. The tumor-to-background ratio (TBR) was calculated as the average fluorescence intensity of the tumor divided by that of the skeletal muscle or intestine.

[3] = test system: A2780 and OSE cells (GnRHR-positive); test: Flow cytometry blocking experiment with unlabeled GnRHa peptide; format: cell-based, human; settings: pretreated with 100 μmol/L GnRHa peptide 10 min, then 2 μmol/L GnRHa-ICG 30 min, 37°C, triplicate
Description: A2780 and OSE cells were placed in 6-well plates, grown to ~70% confluence, and then incubated with GnRHa-FITC (20 μmol/L) or GnRHa-ICG/ICG (10 μmol/L) for 30 min at 37°C. For the blocking experiments, cells were pretreated with 100 μmol/L GnRHa peptide for 10 min and then incubated with 2 μmol/L GnRHa-ICG for 30 min at 37°C. Samples were measured on a CytoFLEX flow cytometer (Beckman Coulter) or a FACSAria flow cytometer (BD Biosciences). All samples were examined in triplicate. Data were analyzed using FlowJo software (version X 10.0.7).

A2780 cells [4] = test: Cell viability assay (Cell Counting Kit-8); format: cell-based, human; settings: 0, 1, 10, 100 μmol/L, 48 h exposure, CCK-8, 4 sub-wells
Description: A2780 cells were seeded in 96-well plate and grown to ~40% confluence. Cells were incubated with GnRHa-ICG at different concentrations: 0, 1, 10, and 100 μmol/L. Each group had 4 sub-wells. After exposure for 48 h, cell viabilities were assessed by Cell Counting Kit-8 assay (Dojindo). The absorbance at 450 nm (reference wavelength: 630 nm) was measured with a microplate reader.

Balb/c nude mice = test: In vivo toxicity test; settings: 1.5 mg/kg intraperitoneal, n = 4
Description: The toxicity of GnRHa-ICG was determined in Balb/c nude mice (n = 4). Two groups received intraperitoneal injections of 1.5 mg/kg GnRHa-ICG and were followed for 2 and 96 h. The control group received vehicle alone. Blood draws were done to assess alanine transaminase (ALT), aspartate transaminase (AST), blood urea nitrogen (BUN), creatinine (CREA), white blood cells (WBC), and red blood cells (RBC). Tissues of the heart, lung, liver, spleen and kidney were harvested for HE staining.

[5] = 2 h post administration, 0.72 μmol/kg intraperitoneal, IVIS Lumina K, ex 780/em 845 nm, mean ± SD, n = 3 per group
[6] = 20 μmol/L, mean fluorescence intensity by ImageJ

- course of tumor fluorescence intensity ([2]; mouse, in vivo): decreased quickly within 48 h
- fluorescence in control (normal, non-tumor) mice ([2]; mouse, in vivo, ip): high fluorescence signals
Compound: CC1(C)C(/C=C/C=C/C=C/C=C2\N(CCCCS(=O)(=O)O)c3ccc4ccccc4c3C2(C)C)=[N+](CCCCS(=O)(=O)[O-])c2ccc3ccccc3c21 [ICG, Indocyanine green, reference compound]
- fluorescence signal, times lower than with incubation of GnRHa-ICG (A2780 cells [1]; 20 μM each): 2.61 times
- fluorescence signal, times lower than with incubation of GnRHa-ICG (OSE cells; 20 μM each): 2.25 times
- tumor-to-intestine ratio [2, 5]: 0.57 ± 0.06
- tumor-to-muscle ratio [2, 5]: 4.60 ± 0.50

Compound: D-2-Nal-D-4-Cl-Phe-D-3-Pal-Ser-Tyr-D-Cit-Leu-Arg-Pro-D-Ala-NH2 [GnRHa-ICG]
- fluorescence intensity, fold higher than in H1299 cells (GnRHR-negative) (A2780 cells [1]; [6]): 1.56 fold
- fluorescence intensity, fold higher than in H1299 cells (GnRHR-negative) (OSE cells; [6]): 1.34 fold
- effect of competition with unlabeled GnRHa on fluorescence intensity [3]: partial reduction in fluorescence intensity
- cell viability after exposure (tumorigenic potential) (A2780 cells [4]): does not increase cell viability
- course of tumor-to-background ratio (TBR) over time ([2]; between 2 and 48 h, intraperitoneal): stable
- ex vivo imaging of the brain (binding to hypothalamic GnRHR) ([2]; mouse, in vivo): did not show fluorescence signals
- fluorescence in benign retroperitoneal lymph nodes versus tumor ([2]; mouse, in vivo): fewer fluorescence signals
- fluorescence in control (normal, non-tumor) mice ([2]; mouse, in vivo, ip): did not show fluorescence signals
- time at which fluorescence signal of A2780 xenografts peaked in intensity ([2]; mouse, in vivo, ip): 2 h
- time for which tumor fluorescence intensities were maintained ([2]; mouse, in vivo, ip): up to 48 h
- time of highest fluorescence density in the liver ([2]; mouse, in vivo, ip): 24 h
- ALT, AST, CREA, WBC and RBC, control versus test groups (Balb/c nude mice; 2 and 96 h): no significant difference
- BUN (Balb/c nude mice; 96 h after injection): slight decrease
- histological observation of main organs (heart, lung, liver, spleen, kidney; HE staining) (Balb/c nude mice): did not present any obvious damage
